Results on one substance are retold here after article PMC11224403, “Des-acyl ghrelin reduces alcohol intake and alcohol-induced reward in rodents” (Translational Psychiatry, 2024).

Series [1] deals with human transporter of dopamine (DAT). In words: Transporter inhibition in recombinant cell line (neurotransmitter transporter uptake assay), DAT. The series is classed as cell-based. Conditions: 8.3 µM DAG; CHO-K1 cells, 3 h incubation, fluorescence dye.
The next series deals with male and female rats. Description: Intermittent-access alcohol drinking, acute DAG injection. The series is classed as in vivo, Rcc Han Wistar rats. The following applies: for intake of alcohol, water, total fluid, food, alcohol preference, body weight: male and female rats. The text has this:
Male and female Rcc Han Wistar rats (8–12 weeks old at arrival; Envigo, Horst, Netherlands) were used for the alcohol drinking and locomotor activity experiments as they drink alcohol to intoxicating levels. For in vivo microdialysis studies male Wistar rats (Charles River, Calco, Italy) were used as they display robust dopamine levels in NAc shell after alcohol injection. […] All rodents were allowed to habituate to the animal facility at least one week before they entered an experiment. During housing (20 °C with 50% humidity) the rodents had free access to water and standard chow (Teklad Rodent Diet; Envigo, Madison, WI, USA). These experiments were approved by the Ethics Committee for Animal Experiments (ethical numbers: 1457/18, 3276/18, 1556/18, 3348/20; Gothenburg, Sweden) and followed the ARRIVE guidelines. The sample sizes of each experiment were based on previous experience in which statistical significance has been detected. The person who conducted the experiments, and analyzed the collected data was aware of the treatment allocation. Only preset exclusion criteria were used when analyzing the data obtained in attempts to exclude confounding factors in analyzing data. In the alcohol drinking experiments leaking bottles and low alcohol consumption (<3.0 g/kg for males; <3.5 g/kg for females) were preset exclusion criteria. The preset exclusion criterion in the ex vivo HPLC-EC, ELISA, and recombinant cell line experiments was contamination of the sample. Misplaced probes, technical difficulties, and damages to the surgery area were preset exclusion criteria for the in vivo microdialysis experiment. Intra-cage male aggression was the preset exclusion criterion for the locomotor activity and CPP experiments. To minimize tentative confounding factors, the order of treatments was stratified, with treatments being mixed for each animal cage and for each apparatus used as well as balancing the alcohol intake between future treatment groups. Although each experiment only was performed once, they were separated over different laboratory days with equal data obtained between sessions.
Alcohol (95%; Solveco AB, Stockholm, Sweden) was either diluted to a 20% solution using tap water (drinking experiment) or to a 15% (w/v) solution with 0.9% NaCl. Alcohol was in the behavioral and neurochemical tests injected (intraperitoneally, IP) 5 min before the test. A dose of 1.75 g/kg was used in male mice as it causes robust locomotor stimulation and induces a CPP [37–39], and 2 g/kg was used for rats as it elevates the dopamine levels in NAc shell. DAG (Tocrise Bioscience, Bristol, UK) was dissolved in 0.9% NaCl in doses (0.25–2 mg/kg) known to reduce food intake and DAG was injected IP).
Individually housed rats had intermittent access to an alcohol (20%) bottle and a water bottle, three 24-h sessions per week, and only water bottles the remaining days. A reversed light/dark cycle was used, and the bottles were changed when the lights went out. First, the rats consumed alcohol for 10 weeks (baseline drinking), where the bottles and food were weighed daily and the body weight weekly. During treatments, the bottles and food were weighed at 4- and/or 24-h and the body weight was measured daily. In the first drinking experiment, the potential of DAG to reduce alcohol consumption was tested and therefore, vehicle or DAG (1 mg/kg) was acutely injected into male (n = 12) or female (n = 12) rats. The second drinking experiment was conducted to establish the effects of lower DAG doses on alcohol intake. Therefore, separate male (n = 18) or female (n = 18) rats, were acutely injected with lower DAG doses (0.5 or 0.25 mg/kg) or vehicle. The third alcohol drinking experiment evaluated the ability of repeated DAG injections to lower alcohol drinking. Therefore, additional male (n = 24) and female (n = 24) rats were injected with either vehicle or DAG (1 mg/kg) at three alcohol-drinking sessions. […]

The next series concerns 5HT2A receptor. In words: Aquoscreen receptor activity assay, 5HT2A. The series is classed as cell-based, human. The following applies: 50 µM DAG in results (8.3 µM in methods); luminescence, triplicates.
For the next series, the system named is cFOS in NAc and VTA. In words: cFOS-positive cells in NAc and VTA. It counts as in vivo, male rats. Conditions: acute DAG, 90 min. The procedure:
We therefore explore if DAG influenced the activity of neurons (cFOS) in NAc and VTA. Naïve male rats were treated acutely with vehicle (n = 3) or DAG (n = 3) and were 90 min later perfused. Brains were collected, and stored in 4% paraformaldehyde overnight, and in 25% sucrose until sectioning. Brains were sectioned coronally in 40-μm sections using a microtome. Brain slices of NAc (AP +1.8 mm) and VTA (AP −5.2 mm) were stained for cFOS-DAB, as described elsewhere, visualized by a Nikon light microscope (Nikon Eclipse 90i, Tokyo, Japan). Pictures were captured with a Nikon DS-Fi1 camera (Nikon, Tokyo, Japan). Cell bodies positive for cFOS immunoreactivity (dark brown) were quantified using ImageJ-FIJI (National Institutes of Health, Bethesda, MD), and counted manually by a blinded experimenter.
The obtained data are normally distributed and with equal variance. The data from drinking experiments were analyzed by unpaired t-test or repeated two-way ANOVA. A two-tailed unpaired t-test analyzed the ELISA, ex vivo HPLC-EC, and cFOS data. […] A one-way ANOVA with Bonferroni post hoc tests and unpaired t-test analyzed the locomotor activity and CPP data, respectively. The in vivo microdialysis experiments were evaluated by a repeated two-way ANOVA followed by the Bonferroni post hoc test. […] Data were analyzed with GraphPad Prism version 10.0.2 (GraphPad Software, La Jolla, CA, USA).

For series [2] the following is noted: cited from earlier work. The text has this: Although DAG altered the neurotransmission of the VTA, the neuronal activi ... || Although DAG reduced alcohol consumption in rats of both sexes, some sex differences were evident. Specifically, after acute DAG treatment the decline in alcohol consumption was evident at the 24-h time point for males and the 4-h time point for females. Moreover, after repeated DAG treatment the decline was similar at each treatment session for males whereas it escalates over time in females.

Where [3] appears, read: female rats, acute DAG 1.0 mg/kg IP, n = 5 vs vehicle n = 6, 4 h.
The mark [4] stands for this setting: male rats, acute DAG 1.0 mg/kg IP, n = 5 vs vehicle n = 6, 4 h.
The mark [5] stands for this setting: male rats, acute DAG 1.0 mg/kg IP, n = 5 vs vehicle n = 6, 24 h.

As to “des-acyl ghrelin (GSSFLSPEHQRVQQRKESKKPPAKLQPR; Ghrelin-28 non-acylated; UniProt Q9UBU3 24-51, looked up) [DAG, non-octanoylated form of ghrelin; purchased from Tocris (printed Tocrise Bioscience), dissolved in 0.9% NaCl]”, the “inhibition of DAT” value in series [1] is listed as “no inhibition”. Besides, the 4-h alcohol intake entry with male and female rats (setting [3]) is given as “decreased the 4-h alcohol intake (t9 = 2.05; P = 0.0351)”; with male and female rats (setting [4]), “did not alter the A 4-h alcohol intake (t9 = 0.36; P = 0.7264)”. Moreover, the “preference for alcohol, 4-h” value is reported as “reduced it at the I 4-h (t9 = 2.16; P = 0.0294)” with male and female rats (setting [3]); “did not alter the C preference for alcohol at the 4-h time point (t9 = 1.84; P = 0.0983)” with male and female rats (setting [4]). Besides, the 4-h food intake entry is reported as “At neither time point, DAG affected the K, L food intake (t9 = 0.34; P = 0.7414” with male and female rats (female rats, acute DAG 1.0 mg/kg IP, n = 5 vs vehicle n = 6, 4 h (first statistic)); “did not affect the E 4-h food intake (t9 = 1.51; P = 0.1657)” in the series with male and female rats (setting [4]). For the same substance, the 24-h alcohol intake entry in the series on male and female rats (female rats, acute DAG 1.0 mg/kg IP, n = 5 vs vehicle n = 6, 24 h) is listed as “did not alter the 24-h drinking (t9 = 0.22; P = 0.8331)”; in the series on male and female rats (setting [5]), “reduced the alcohol intake at the 24-h time point (t9 = 2.35; P = 0.0432)”. The 24-h food intake entry in the series on male and female rats (female rats, acute DAG 1.0 mg/kg IP, n = 5 vs vehicle n = 6, 24 h (second statistic)) is “At neither time point, DAG affected the K, L food intake (t9 = 0.34; P = 0.7414 and t9 = 1.12; P = 0.2909, respectively)”; with male and female rats (setting [5]), “increased the 24-h feeding (t9 = 2.64; P = 0.0271)”. The “intake of alcohol, water, total fluid, food, alcohol preference, body weight” value is “did not alter the intake of alcohol, water, total fluid, food intake alcohol preference or body weight in male or female rats” in the series on male and female rats (acute DAG 0.25 mg/kg IP, n = 6); “did not alter the intake of alcohol, water, total fluid, food intake alcohol preference or body weight in male or female rats” in the series on male and female rats (acute DAG 0.5 mg/kg IP, n = 6 (males n = 5)). Besides, the “preference for alcohol, 24-h” value in the series with male and female rats (setting [5]) was “decreased it at 24 h (t9 = 3.00; P = 0.0149)”. Besides, the “activation of 5HT2A” value in the series with 5HT2A receptor is given as “no activation”. Also, the “cFOS-positive cells, VTA” value in the series on cFOS in NAc and VTA (male rats, data not shown) is “Neither did DAG treatment influence cFOS-positive cells in the VTA”. For the same substance, in the series with cFOS in NAc and VTA (naïve male rats, n = 3 per group, vehicle 237 ± 13, t4 = 0.60, P = 0.6372), the “number of cFOS-positive cells, NAc shell” value is recorded as 219 ± 33. Further, the elimination pathway entry in series [2] (ref [63], [64]) is recorded as “renal clearance has been suggested to be a major pathway for the elimination of DAG”. In addition, the brain entry entry in series [2] (systemic DAG, ref [52]) is “enters the brain through non-saturable transmembrane diffusion”.
